Assay results from paper PMC10509173, “Deep learning driven de novo drug design based on gastric proton pump structures” (Communications Biology, 2023).
Values joined by “and” are separate entries in the source; they are usually repeats but may differ in a detail not shown here. Equal values may be shown once. Each block holds one molecule with its values, some of them ahead of it.

Columns and labels:
H+,K+-ATPase [1] = target: T1, H+,K+-ATPase (Sus scrofa, UniProt P19156); assay: K+-dependent ATPase assay, double reciprocal plot and Ki estimation; format: biochemical, pig; set-up: H^+,K^+-ATPase-enriched membrane fractions were purified from pig stomach; from tissue; host or cells: pig stomach (gastric membrane fractions); reciprocal K+-stimulated ATPase activity, Lineweaver-Burk raw data: unit not given here; conditions: for reciprocal K+-stimulated ATPase activity, Lineweaver-Burk raw data: replicate values
T1 sequence (P19156 2-1034 limits assumed): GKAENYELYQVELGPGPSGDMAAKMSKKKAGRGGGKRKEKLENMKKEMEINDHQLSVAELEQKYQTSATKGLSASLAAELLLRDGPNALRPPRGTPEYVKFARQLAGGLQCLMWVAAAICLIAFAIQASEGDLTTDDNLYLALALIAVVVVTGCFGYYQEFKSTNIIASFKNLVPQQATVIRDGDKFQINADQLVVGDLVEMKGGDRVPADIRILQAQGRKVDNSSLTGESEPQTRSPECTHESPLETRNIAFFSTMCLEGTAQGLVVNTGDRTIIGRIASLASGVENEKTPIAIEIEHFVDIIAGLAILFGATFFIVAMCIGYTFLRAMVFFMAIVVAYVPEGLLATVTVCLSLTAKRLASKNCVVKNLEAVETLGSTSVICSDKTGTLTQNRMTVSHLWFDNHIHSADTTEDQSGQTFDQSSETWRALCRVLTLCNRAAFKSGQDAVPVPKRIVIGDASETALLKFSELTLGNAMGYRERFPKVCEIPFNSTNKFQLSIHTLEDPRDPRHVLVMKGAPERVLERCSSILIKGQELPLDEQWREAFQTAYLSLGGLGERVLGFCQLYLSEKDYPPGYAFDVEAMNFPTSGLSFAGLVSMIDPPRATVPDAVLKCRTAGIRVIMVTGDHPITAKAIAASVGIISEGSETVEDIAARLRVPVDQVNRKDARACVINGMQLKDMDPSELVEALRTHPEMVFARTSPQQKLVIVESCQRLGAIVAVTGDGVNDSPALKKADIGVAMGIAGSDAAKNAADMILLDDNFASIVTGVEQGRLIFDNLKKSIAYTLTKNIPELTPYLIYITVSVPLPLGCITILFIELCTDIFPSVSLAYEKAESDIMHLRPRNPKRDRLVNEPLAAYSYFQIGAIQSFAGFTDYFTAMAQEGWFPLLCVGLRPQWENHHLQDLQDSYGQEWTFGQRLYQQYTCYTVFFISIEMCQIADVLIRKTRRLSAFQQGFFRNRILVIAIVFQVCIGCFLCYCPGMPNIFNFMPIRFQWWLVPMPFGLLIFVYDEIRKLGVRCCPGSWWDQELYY
T1 sequence (P18434 whole entry partner): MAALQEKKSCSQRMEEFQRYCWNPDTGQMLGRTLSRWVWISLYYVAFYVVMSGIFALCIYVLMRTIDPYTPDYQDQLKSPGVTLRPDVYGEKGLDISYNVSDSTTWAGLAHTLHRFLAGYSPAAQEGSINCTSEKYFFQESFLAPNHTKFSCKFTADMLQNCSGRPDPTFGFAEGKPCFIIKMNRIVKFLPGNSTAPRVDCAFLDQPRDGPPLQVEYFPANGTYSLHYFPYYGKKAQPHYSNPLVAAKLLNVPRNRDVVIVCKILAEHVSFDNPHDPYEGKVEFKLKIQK
Description: Data measured from 96-well plate contained triplicates of four different sets of K^+-dependent ATPase assays in the absence or presence of three different concentrations of synthesized compounds. Data were corrected for background values in the absence of K^+ at each compound concentration, and plot them against the double reciprocal axes in Supplementary Fig. 5. Data were also fitted by using simultaneous nonlinear regression as described previously to estimate their Ki values.

H+,K+-ATPase [2] = target: T1, H+,K+-ATPase; assay: Dose-dependent inhibition of H+,K+-ATPase activity, membrane fractions; conditions: for H+,K+-ATPase activity, raw data of dose-dependent inhibition: single replicate values
[3] = [PCAB] -3.30103 (log, unit not given)
[4] = [PCAB] -3.52288 (log, unit not given)
[5] = [PCAB] -4 (log, unit not given)
[6] = [PCAB] -4.30103 (log, unit not given)
[7] = [PCAB] -4.52288 (log, unit not given)
[8] = [PCAB] -5 (log, unit not given)
[9] = [PCAB] -5.52288 (log, unit not given)
[10] = [PCAB] -6 (log, unit not given)
[11] = [PCAB] -6.30103 (log, unit not given)
[12] = [PCAB] -7 (log, unit not given)
[13] = [PCAB] -8 (log, unit not given)
[14] = [PCAB] -11 (log, unit not given; possibly placeholder for no compound)

Ki (H+,K+-ATPase [1]; K+-competitive inhibition, read-out: Ki): 93.8 nM
reciprocal K+-stimulated ATPase activity, Lineweaver-Burk raw data (H+,K+-ATPase [1]; compound concentration 50, 1/KCl 0.05 (units not given)): 0.0059 and 0.0057 and 0.006
reciprocal K+-stimulated ATPase activity, Lineweaver-Burk raw data (H+,K+-ATPase [1]; compound concentration 50, 1/KCl 0.1 (units not given)): 0.0075 and 0.0077 and 0.0078
reciprocal K+-stimulated ATPase activity, Lineweaver-Burk raw data (H+,K+-ATPase [1]; compound concentration 50, 1/KCl 0.125 (units not given)): 0.0067 and 0.0066 and 0.007
reciprocal K+-stimulated ATPase activity, Lineweaver-Burk raw data (H+,K+-ATPase [1]; compound concentration 50, 1/KCl 0.2 (units not given)): 0.0088 and 0.0086 and 0.0089
reciprocal K+-stimulated ATPase activity, Lineweaver-Burk raw data (H+,K+-ATPase [1]; compound concentration 50, 1/KCl 0.5 (units not given)): 0.0111 and 0.011 and 0.0112
reciprocal K+-stimulated ATPase activity, Lineweaver-Burk raw data (H+,K+-ATPase [1]; compound concentration 50, 1/KCl 1 (units not given)): 0.0282 and 0.0275 and 0.0291
reciprocal K+-stimulated ATPase activity, Lineweaver-Burk raw data (H+,K+-ATPase [1]; compound concentration 50, 1/KCl 2 (units not given)): 0.035 and 0.034 and 0.0286
reciprocal K+-stimulated ATPase activity, Lineweaver-Burk raw data (H+,K+-ATPase [1]; compound concentration 100, 1/KCl 0.05 (units not given)): 0.0066 and 0.0063 and 0.0065
reciprocal K+-stimulated ATPase activity, Lineweaver-Burk raw data (H+,K+-ATPase [1]; compound concentration 100, 1/KCl 0.1 (units not given)): 0.0087 and 0.0094 and 0.0098
reciprocal K+-stimulated ATPase activity, Lineweaver-Burk raw data (H+,K+-ATPase [1]; compound concentration 100, 1/KCl 0.125 (units not given)): 0.0086 and 0.0083 and 0.0082
reciprocal K+-stimulated ATPase activity, Lineweaver-Burk raw data (H+,K+-ATPase [1]; compound concentration 100, 1/KCl 0.2 (units not given)): 0.011 and 0.0106 and 0.0113
reciprocal K+-stimulated ATPase activity, Lineweaver-Burk raw data (H+,K+-ATPase [1]; compound concentration 100, 1/KCl 0.5 (units not given)): 0.0167 and 0.0156 and 0.0168
reciprocal K+-stimulated ATPase activity, Lineweaver-Burk raw data (H+,K+-ATPase [1]; compound concentration 100, 1/KCl 1 (units not given)): 0.0412 and 0.0415 and 0.043
reciprocal K+-stimulated ATPase activity, Lineweaver-Burk raw data (H+,K+-ATPase [1]; compound concentration 100, 1/KCl 2 (units not given)): 0.056 and 0.0496 and 0.0604
reciprocal K+-stimulated ATPase activity, Lineweaver-Burk raw data (H+,K+-ATPase [1]; compound concentration 400, 1/KCl 0.05 (units not given)): 0.0084 and 0.0076 and 0.008
reciprocal K+-stimulated ATPase activity, Lineweaver-Burk raw data (H+,K+-ATPase [1]; compound concentration 400, 1/KCl 0.1 (units not given)): 0.0109 and 0.0112 and 0.011
reciprocal K+-stimulated ATPase activity, Lineweaver-Burk raw data (H+,K+-ATPase [1]; compound concentration 400, 1/KCl 0.125 (units not given)): 0.0123 and 0.011 and 0.0111
reciprocal K+-stimulated ATPase activity, Lineweaver-Burk raw data (H+,K+-ATPase [1]; compound concentration 400, 1/KCl 0.2 (units not given)): 0.0153 and 0.0154 and 0.0157
reciprocal K+-stimulated ATPase activity, Lineweaver-Burk raw data (H+,K+-ATPase [1]; compound concentration 400, 1/KCl 0.5 (units not given)): 0.0261 and 0.0253 and 0.0282
reciprocal K+-stimulated ATPase activity, Lineweaver-Burk raw data (H+,K+-ATPase [1]; compound concentration 400, 1/KCl 1 (units not given)): 0.069 and 0.0649 and 0.0653
reciprocal K+-stimulated ATPase activity, Lineweaver-Burk raw data (H+,K+-ATPase [1]; compound concentration 400, 1/KCl 2 (units not given)): 0.097 and 0.0973 and 0.106
inhibition mode (H+,K+-ATPase [1]; double reciprocal plot, versus K+): purely competitive with K^+
IC50 (H+,K+-ATPase [2]): 700 ± 40 nM
SMILES: CNCc1ccc(OCc2ccccc2OCc2ccccc2)cc1 [DQ-06]
H+,K+-ATPase activity, raw data of dose-dependent inhibition (H+,K+-ATPase [2]; [3]): 0.01 and -0.01 and 0.22 and -0.22 and -0.74 and -0.4
H+,K+-ATPase activity, raw data of dose-dependent inhibition (H+,K+-ATPase [2]; [4]): 1.74 and 1.71 and 2.79 and 2.38 and 1.76 and 2.41
H+,K+-ATPase activity, raw data of dose-dependent inhibition (H+,K+-ATPase [2]; [5]): 5.02 and 5.03 and 3.19 and 3.1 and 2.85 and 2.51
H+,K+-ATPase activity, raw data of dose-dependent inhibition (H+,K+-ATPase [2]; [6]): 5.51 and 5.6 (2×) and 5.65 and 5.75 and 5.83
H+,K+-ATPase activity, raw data of dose-dependent inhibition (H+,K+-ATPase [2]; [7]): 5.58 and 6.16 and 6.26 and 6.39 and 7.23 and 7.48
H+,K+-ATPase activity, raw data of dose-dependent inhibition (H+,K+-ATPase [2]; [8]): 9.37 and 9.6 and 11.28 and 10.91 and 10.15 and 11.11
H+,K+-ATPase activity, raw data of dose-dependent inhibition (H+,K+-ATPase [2]; [9]): 20.15 and 21.1 and 19.71 and 21.04 and 20.73 and 20.63
H+,K+-ATPase activity, raw data of dose-dependent inhibition (H+,K+-ATPase [2]; [10]): 39.09 and 39.39 and 38.28 and 36.79 and 38.33 and 39.14
H+,K+-ATPase activity, raw data of dose-dependent inhibition (H+,K+-ATPase [2]; [11]): 57.6 and 58.17 and 57.79 and 57.15 and 58.12 and 57.53
H+,K+-ATPase activity, raw data of dose-dependent inhibition (H+,K+-ATPase [2]; [12]): 90.69 and 91.88 and 87.97 and 84.74 and 90.82 and 88.26
H+,K+-ATPase activity, raw data of dose-dependent inhibition (H+,K+-ATPase [2]; [13]): 101.14 and 100.91 and 95.09 and 94.94 and 96.97 and 96.94
H+,K+-ATPase activity, raw data of dose-dependent inhibition (H+,K+-ATPase [2]; [14]): 102.84 and 103.26 and 99.81 and 97.12 and 97.38 and 101.76

IC50 (H+,K+-ATPase [2]): 3520 ± 220 nM
SMILES: CNCc1ccc(OCc2c(Cl)cccc2OCc2ccccc2)cc1 [DQ-19]
H+,K+-ATPase activity, raw data of dose-dependent inhibition (H+,K+-ATPase [2]; [3]): -0.65 and -0.09 and -0.18 (2×) and 0.39 and -0.03
H+,K+-ATPase activity, raw data of dose-dependent inhibition (H+,K+-ATPase [2]; [4]): 1.38 and 2.32 and 2.04 and 1.91 and 2.46 and 2.13
H+,K+-ATPase activity, raw data of dose-dependent inhibition (H+,K+-ATPase [2]; [5]): 10.36 and 10.46 and 8.18 and 7.73 and 7.75 and 7.91
H+,K+-ATPase activity, raw data of dose-dependent inhibition (H+,K+-ATPase [2]; [6]): 16.41 and 15.72 and 6.63 and 6.46 and 5.99 and 5.93
H+,K+-ATPase activity, raw data of dose-dependent inhibition (H+,K+-ATPase [2]; [7]): 18.62 (2×) and 17.28 and 17.05 and 16.78 and 16.42
H+,K+-ATPase activity, raw data of dose-dependent inhibition (H+,K+-ATPase [2]; [8]): 27.04 and 27.03 and 26.28 and 26.11 and 26 and 25.46
H+,K+-ATPase activity, raw data of dose-dependent inhibition (H+,K+-ATPase [2]; [9]): 56.8 and 57.52 and 52.1 and 50.99 and 52.47 and 50.98
H+,K+-ATPase activity, raw data of dose-dependent inhibition (H+,K+-ATPase [2]; [10]): 77.41 and 78.78 and 71.45 and 74.76 and 72.12 and 73.47
H+,K+-ATPase activity, raw data of dose-dependent inhibition (H+,K+-ATPase [2]; [11]): 84.8 and 85.13 and 83.98 and 84.02 and 82.9 and 83.28
H+,K+-ATPase activity, raw data of dose-dependent inhibition (H+,K+-ATPase [2]; [12]): 91.5 and 92.21 and 96.4 and 96.06 and 98.84 and 94.11
H+,K+-ATPase activity, raw data of dose-dependent inhibition (H+,K+-ATPase [2]; [13]): 95.21 and 97 and 100.13 and 98.68 and 100.43 and 97.42
H+,K+-ATPase activity, raw data of dose-dependent inhibition (H+,K+-ATPase [2]; [14]): 95.94 and 97.66 and 99.42 and 99.81 and 100.11 and 99.03
